Source: US20050130909A1 (priority 2002, published 2005)
“And” between values parts separate entries of the source, which are not always exact repeats. Equal entries are not always repeated. Where two headings read alike, the source gives them in different places.

Tests used:
[1] = Phase II SSTI trial: dalbavancin plasma concentrations; type: in vivo, human
[2] = test system: Gram-positive isolates, including MRSA; assay: Dalbavancin MIC of trial isolates; type: cell-based; conditions: isolates that persisted after treatment
[3] = molecular target: human albumin (Homo sapiens, UniProt P02768); assay: Protein binding by isothermal titration microcalorimetry (ITC); conditions: for Calculated percent Binding to Human albumin: albumin 6×10^−4 M assumed
human albumin, sequence (P02768 25-609): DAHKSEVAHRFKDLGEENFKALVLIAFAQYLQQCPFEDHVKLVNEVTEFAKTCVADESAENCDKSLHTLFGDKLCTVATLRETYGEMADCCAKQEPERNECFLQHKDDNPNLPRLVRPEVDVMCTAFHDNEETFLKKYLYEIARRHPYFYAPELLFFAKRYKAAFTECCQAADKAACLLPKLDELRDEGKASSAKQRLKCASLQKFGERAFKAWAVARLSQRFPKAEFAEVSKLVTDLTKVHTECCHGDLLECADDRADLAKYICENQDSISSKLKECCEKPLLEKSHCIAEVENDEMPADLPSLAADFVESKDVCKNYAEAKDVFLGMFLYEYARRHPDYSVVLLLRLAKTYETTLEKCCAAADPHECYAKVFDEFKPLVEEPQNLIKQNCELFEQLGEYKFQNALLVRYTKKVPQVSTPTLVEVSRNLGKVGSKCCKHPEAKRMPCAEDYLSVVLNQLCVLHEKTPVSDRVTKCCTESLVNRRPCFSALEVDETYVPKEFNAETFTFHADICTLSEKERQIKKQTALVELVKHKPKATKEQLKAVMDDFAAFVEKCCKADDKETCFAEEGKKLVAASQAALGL

[4] = molecular target: dog albumin (Canis lupus familiaris, UniProt P49822); assay: Protein binding by ITC; conditions: pH 7.4
dog albumin, sequence (P49822 25-608): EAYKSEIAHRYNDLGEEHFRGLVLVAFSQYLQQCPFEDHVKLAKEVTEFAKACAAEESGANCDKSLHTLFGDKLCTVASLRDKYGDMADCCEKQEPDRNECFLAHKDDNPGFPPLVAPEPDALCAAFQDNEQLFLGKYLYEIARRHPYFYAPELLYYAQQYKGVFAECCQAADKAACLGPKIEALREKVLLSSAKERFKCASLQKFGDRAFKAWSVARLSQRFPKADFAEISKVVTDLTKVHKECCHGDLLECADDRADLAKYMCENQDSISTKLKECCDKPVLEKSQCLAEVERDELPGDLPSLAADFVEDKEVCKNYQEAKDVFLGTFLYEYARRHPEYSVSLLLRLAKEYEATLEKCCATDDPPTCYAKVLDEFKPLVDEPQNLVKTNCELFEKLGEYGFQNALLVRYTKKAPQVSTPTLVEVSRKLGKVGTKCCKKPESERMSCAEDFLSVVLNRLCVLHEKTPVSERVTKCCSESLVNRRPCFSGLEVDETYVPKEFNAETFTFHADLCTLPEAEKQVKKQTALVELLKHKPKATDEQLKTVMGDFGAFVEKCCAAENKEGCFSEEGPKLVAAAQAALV

[5] = test system: human α-glycoprotein; assay: Protein binding by ITC; conditions: for Apparent binding affinity Ka: pH 7.4; for Calculated percent Binding to Human α-glycoprotein: protein […]10^−5 M assumed
[6] = test system: N,N′-diacetyl-Lys-D-Ala-D-Ala; assay: ITC of binding to tri-peptide cell-wall analog, with and without HSA
Procedure: Peptide concentrations were determined by weight.
Trans. R. Soc. Lond. Ser. A-Math. Phys. Eng. […] Wiley, (1998) p 103-111; and Cooper, A., Curr. Opin. Chem. Biol. (1999) 3, 557-563.

[7] = test system: Lys-D-Ala-D-Lactate; assay: ITC, preliminary experiments; type: binding; conditions: absence of serum proteins
[8] = test system: staphylococci; assay: In vitro antibacterial activity; type: cell-based; conditions: including some teicoplanin-resistant strains
[9] = test system: bacteria; conditions: cited from earlier work

Compound: CN[C@H]1C(=O)N[C@@H]2Cc3ccc(cc3)Oc3cc4cc(c3O[C@@H]3O[C@H](C(=O)O)[C@@H](O)[C@H](O)[C@H]3NC(=O)CCCCCCCCC(C)C)Oc3ccc(cc3Cl)[C@@H](O)[C@@H]3NC(=O)[C@H](NC(=O)[C@@H]4NC(=O)[C@@H](NC2=O)c2cc(cc(O)c2Cl)Oc2cc1ccc2O)c1ccc(O)c(c1)-c1c(O[C@H]2O[C@H](CO)[C@@H](O)[C@H](O)[C@@H]2O)cc(O)cc1[C@@H](C(=O)NCCCN(C)C)NC3=O [Dalbavancin]
- Mean dalbavancin plasma concentration (mean±SD) ([1]; single-dose regimen, Study day 24): 10.2 ± 3.5 mg/L
- Dalbavancin plasma concentration, all patients ([1]; through the first week following the first dose): greater than 20 mg/l
- Mean dalbavancin plasma concentration (mean±SD) ([1]; two-dose regimen 1000/500 mg IV, Study day 8 (prior to the second dose)): 30.4 ± 8.2 mg/L
- Mean dalbavancin plasma concentration (mean±SD) ([1]; two-dose regimen, Study day 20): 21.2 ± 10.0 mg/L
- Mean dalbavancin plasma concentration (mean±SD) ([1]; two-dose regimen, Study day 34): 9.0 ± 4.4 mg/L
- Change in dalbavancin MIC of isolates that persisted [2]: no change in dalbavancin MIC
- Apparent binding affinity Ka ([3]; 37° C., pH 7.4): 1.33 (±0.15) ×10^5 M^−1
- Binding stoichiometry N (protein to dalbavancin) ([3]; ITC fit, in all cases (all proteins tested), FIG. 2): < 1
- Binding to human serum albumin ([3]; across 1-500 μM dalbavancin): exceeds 98%
- Calculated percent Binding to Human albumin ([3]; antibiotic 1 μM): 98.8%
- Calculated percent Binding to Human albumin ([3]; antibiotic 10 μM): 98.8%
- Calculated percent Binding to Human albumin ([3]; antibiotic 100 μM): 98.7%
- Calculated percent Binding to Human albumin ([3]; antibiotic 165 μM): 98.6%
- Calculated percent Binding to Human albumin ([3]; antibiotic 250 μM): 98.5%
- Calculated percent Binding to Human albumin ([3]; antibiotic 500 μM): 98.0%
- Binding stoichiometry antibiotic:protein ([3]; binding stoichiometry modeling of ITC data): two dalbavancin molecules are bound to one molecule of protein
- Free fraction ([3]; human): ~1%
- Apparent binding affinity Ka ([4]; 25° C.): 0.62 (±0.09) ×10^5 M^−1
- Apparent binding affinity Ka ([4]; 37° C.): 0.50 (±0.13) ×10^5 M^−1
- Apparent binding affinity Ka ([5]; 25° C.): 1.84 (±0.36) ×10^5 M^−1
- Apparent binding affinity Ka ([5]; 37° C.): 4.8 (±2.3) ×10^5 M^−1
- Calculated percent Binding to Human α-glycoprotein ([5]; antibiotic 1 μM): 73.0%
- Calculated percent Binding to Human α-glycoprotein ([5]; antibiotic 10 μM): 68.2%
- Calculated percent Binding to Human α-glycoprotein ([5]; antibiotic 100 μM): 26.2%
- Calculated percent Binding to Human α-glycoprotein ([5]; antibiotic 165 μM): 16.9%
- Calculated percent Binding to Human α-glycoprotein ([5]; antibiotic 250 μM): 11.4%
- Calculated percent Binding to Human α-glycoprotein ([5]; antibiotic 500 μM): 5.9%
- Kass ([6]; 10 ° C., [HSA] 0 μM): 920000 M⁻¹ and 685000 M⁻¹ and 624000 M⁻¹ and 670000 M⁻¹
- Kd ([6]; 10 ° C., [HSA] 0 μM, read-out: Kdiss): 1.09 µM and 1.6 µM and 1.49 µM
- Kd ([6]; 10° C., absence of HSA, read-out: Average Kdiss): ~1.4 µM
- Weakening of binding affinity at HSA plateau relative to absence of HSA ([6]; 25° C.): 10-12 ×
- Kass ([6]; 25 ° C., [HSA] 0 μM): 313000 M⁻¹ and 330000 M⁻¹ and 320000 M⁻¹ and 280000 M⁻¹ and 303000 M⁻¹ and 319000 M⁻¹ and 393000 M⁻¹
- Kd ([6]; 25 ° C., [HSA] 0 μM, read-out: Kdiss): 3.57 µM and 3.3 µM and 2.54 µM
- Kd ([6]; 25° C., absence of HSA (free dalbavancin), read-out: Average Kdiss): ~3.1 µM
- Kass ([6]; 25 ° C., with HSA 34.2 μM): 35000 M⁻¹
- Kd ([6]; 25 ° C., with HSA 34.2 μM, read-out: Kdiss): 28.6 µM
- Kd ([6]; 37° C., absence of HSA, read-out: Average Kdiss): ~8.4 µM
- Effect of HSA on solubility of dalbavancin ([6]; aqueous buffer pH 7.4 containing HSA): HSA increased the solubility of dalbavancin
- Kd ([6]; read-out: Apparent Kdiss, plateau level at high concentrations of HSA (dalbavancin bound to HSA), 25° C., HSA above 35 μM up to 600 μM, FIG. 11): ~35 µM
- Binding to Lys-D-Ala-D-Lactate [7]: no evidence of binding
- In vitro activity relative to teicoplanin and vancomycin [8]: more active in vitro against staphylococci (including some teicoplanin-resistant strains) than teicoplanin and vancomycin
- Concentrations known to be bactericidal [9]: 4 to 32 mg/L
